For assay [1], the system named is MCF-7 (breast cancer cell). Kind of assay: Measurement of cellular proliferation, MCF-7 cells. To be noted: MCF-7, 48 hours. In kind it is cell-based. How it is done:
(§1) Measurement of cellular proliferation: LNCaP cells at 2.5×10^4/well or PC3 cells at 5×10^4/well, both in a final volume of 100 μl, were plated in triplicate in standard flat bottom 96 well tissue culture plates in the presence of drug or vehicle (DMSO). Unless otherwise indicated, cells were grown for 48 hours at 37° C. in a CO2 incubator. Relative cell growth was determined with the CellTiter 96 aqueous cell proliferation assay (Promega, Madison, Wis.) as described by the manufacturer using an automated plate reader. Results were calculated in a blinded fashion and are means of triplicate determinations.
(§2) For the 48 hour proliferation, cells were cultured with calcium channel antagonists or without calcium channel antagonists. The IC50 values of the calcium channel antagonists were determined.
(§3) Using the measurement cell proliferation assay described hereinabove, the cell lines Jurkat, LNCap (prostate cancer cell), PC-31 (prostate cancer cell), DU145 (prostate cancer cell), MDA-468 (breast cancer cell), MDA-36 (Breast cancer cell), MCF-7 (breast cancer cell), MIA PaCa-2 (pancreatic cancer cell), Hep G2 (liver cancer cell), A549 (non-small cell lung cancer cells), NCI H460 (non-small cell lung cancer cells), HT-29 (colon cancer cell), HCT-116 (colon cancer cell) and SK OV-3 (ovarian cancer cell) were cultured in the presence of TH-1177, TH-1205, TH-1201, TH-2109, TH-2029, TH-2043, TN-2085 and TH-2279.

In assay [2] the test system is MIA PaCa-2 (pancreatic cancer cell). Kind of assay: Measurement of cellular proliferation, MIA PaCa-2 cells. To be noted: MIA PaCa-2, 48 hours. The format is cell-based. How it is done: as §1, §2, §3
The target in assay [3] is T1, α1G subunit of a calcium channel (Homo sapiens, UniProt O43497).
T1 construct: expressed in transfected cells
Kind of assay: Whole cell current recording, Xenopus oocytes transfected with α1G subunit. In kind it is cell-based. The procedure: The procedure of Example 9 was repeated except the cells were transfected with 2 μg of α1G subunit prepared in accordance with the procedure described in Cribbs, et al., FEBS Letters, 66, 54-58 (2000). Here the cells were depolarized using the depolarizing medium of Example 9. When the current reached the maximum level, then 10 μm pH 1177 was added to the medium and the change in current was observed. The current was measured at about zero pA. When the current remained constant, the TH-1177 was washed out, in accordance with the procedure in Example 9 and the change in the current value was again recorded.

In assay [4] the test system is PC3 prostate cancer cells. The assay can be described thus: Measurement of cellular proliferation, PC3 cells. In kind it is cell-based, human. The procedure:
as §1, §2, §3

The subject of the next assay is PC3 cells. The assay can be described thus: Survival of SCID mice inoculated with PC3 cells. The format is in vivo. How it is done: Animal Studies: All protocols were approved by the Animal Care Committee of the University of Virginia. SCID mice were housed in a barrier isolation facility of the University of Virginia Department of Comparative Medicine and all personnel observed sterile techniques when entering the facility and handling animals. TH-1177 was dissolved in ethanol and diluted 10-fold in sterile phosphate buffered saline (PBS) immediately prior to each day's injection. Injection volumes of 0.5 ml per animal were used. Vehicle consisted of PBS diluted ethanol. PC3 cells for injection were prepared by washing in sterile PBS three times prior to suspension to 2×10^6 per ml. Each animal received a daily IP injection of vehicle or drug beginning on day 1.
Statistical methods: In vivo survival data were analyzed with Prism 2.01 (GraphPad Software, San Diego, Calif.). The results of the Kaplan-Meier analysis are presented as one-tailed probabilities because there was no reasonable expectation that drug treatment would cause the mice to succumb more rapidly to the implanted cancer than would control animals.
TH-1177 slowed prostate cancer progression in vivo. […] One day later, daily IP injections of TH-1177 or vehicle alone were begun. TH1177 was administered at doses or either 3 mg/kg or 10 mg/kg. […]

In assay [5] the test system is MDA-361 cells (breast cancer cell). The assay can be described thus: Measurement of cellular proliferation, MDA-361 cells. In kind it is cell-based. The note with it: MDA-361, 48 hours; read-out: PROLIFERATION IC50 MDA-361. The procedure:
as §1, §2, §3

The test system of assay [6] is NCI H460 (non-small cell lung cancer cells). The assay can be described thus: Measurement of cellular proliferation, NCI H460 cells. In kind it is cell-based. To be noted: NCI H460, 48 hours; read-out: PROLIFERATION IC50 NCl H460. How it is done: as §1, §2, §3
Assay [7] has as its system LNCaP prostate cancer cells. Kind of assay: Measurement of cellular proliferation, LNCaP cells. The format is cell-based, human. The procedure: as §1, §2, §3

Read-outs that look alike come from different tables or passages of the source.

T1 sequence (O43497 1-2171 isoform O43497-5): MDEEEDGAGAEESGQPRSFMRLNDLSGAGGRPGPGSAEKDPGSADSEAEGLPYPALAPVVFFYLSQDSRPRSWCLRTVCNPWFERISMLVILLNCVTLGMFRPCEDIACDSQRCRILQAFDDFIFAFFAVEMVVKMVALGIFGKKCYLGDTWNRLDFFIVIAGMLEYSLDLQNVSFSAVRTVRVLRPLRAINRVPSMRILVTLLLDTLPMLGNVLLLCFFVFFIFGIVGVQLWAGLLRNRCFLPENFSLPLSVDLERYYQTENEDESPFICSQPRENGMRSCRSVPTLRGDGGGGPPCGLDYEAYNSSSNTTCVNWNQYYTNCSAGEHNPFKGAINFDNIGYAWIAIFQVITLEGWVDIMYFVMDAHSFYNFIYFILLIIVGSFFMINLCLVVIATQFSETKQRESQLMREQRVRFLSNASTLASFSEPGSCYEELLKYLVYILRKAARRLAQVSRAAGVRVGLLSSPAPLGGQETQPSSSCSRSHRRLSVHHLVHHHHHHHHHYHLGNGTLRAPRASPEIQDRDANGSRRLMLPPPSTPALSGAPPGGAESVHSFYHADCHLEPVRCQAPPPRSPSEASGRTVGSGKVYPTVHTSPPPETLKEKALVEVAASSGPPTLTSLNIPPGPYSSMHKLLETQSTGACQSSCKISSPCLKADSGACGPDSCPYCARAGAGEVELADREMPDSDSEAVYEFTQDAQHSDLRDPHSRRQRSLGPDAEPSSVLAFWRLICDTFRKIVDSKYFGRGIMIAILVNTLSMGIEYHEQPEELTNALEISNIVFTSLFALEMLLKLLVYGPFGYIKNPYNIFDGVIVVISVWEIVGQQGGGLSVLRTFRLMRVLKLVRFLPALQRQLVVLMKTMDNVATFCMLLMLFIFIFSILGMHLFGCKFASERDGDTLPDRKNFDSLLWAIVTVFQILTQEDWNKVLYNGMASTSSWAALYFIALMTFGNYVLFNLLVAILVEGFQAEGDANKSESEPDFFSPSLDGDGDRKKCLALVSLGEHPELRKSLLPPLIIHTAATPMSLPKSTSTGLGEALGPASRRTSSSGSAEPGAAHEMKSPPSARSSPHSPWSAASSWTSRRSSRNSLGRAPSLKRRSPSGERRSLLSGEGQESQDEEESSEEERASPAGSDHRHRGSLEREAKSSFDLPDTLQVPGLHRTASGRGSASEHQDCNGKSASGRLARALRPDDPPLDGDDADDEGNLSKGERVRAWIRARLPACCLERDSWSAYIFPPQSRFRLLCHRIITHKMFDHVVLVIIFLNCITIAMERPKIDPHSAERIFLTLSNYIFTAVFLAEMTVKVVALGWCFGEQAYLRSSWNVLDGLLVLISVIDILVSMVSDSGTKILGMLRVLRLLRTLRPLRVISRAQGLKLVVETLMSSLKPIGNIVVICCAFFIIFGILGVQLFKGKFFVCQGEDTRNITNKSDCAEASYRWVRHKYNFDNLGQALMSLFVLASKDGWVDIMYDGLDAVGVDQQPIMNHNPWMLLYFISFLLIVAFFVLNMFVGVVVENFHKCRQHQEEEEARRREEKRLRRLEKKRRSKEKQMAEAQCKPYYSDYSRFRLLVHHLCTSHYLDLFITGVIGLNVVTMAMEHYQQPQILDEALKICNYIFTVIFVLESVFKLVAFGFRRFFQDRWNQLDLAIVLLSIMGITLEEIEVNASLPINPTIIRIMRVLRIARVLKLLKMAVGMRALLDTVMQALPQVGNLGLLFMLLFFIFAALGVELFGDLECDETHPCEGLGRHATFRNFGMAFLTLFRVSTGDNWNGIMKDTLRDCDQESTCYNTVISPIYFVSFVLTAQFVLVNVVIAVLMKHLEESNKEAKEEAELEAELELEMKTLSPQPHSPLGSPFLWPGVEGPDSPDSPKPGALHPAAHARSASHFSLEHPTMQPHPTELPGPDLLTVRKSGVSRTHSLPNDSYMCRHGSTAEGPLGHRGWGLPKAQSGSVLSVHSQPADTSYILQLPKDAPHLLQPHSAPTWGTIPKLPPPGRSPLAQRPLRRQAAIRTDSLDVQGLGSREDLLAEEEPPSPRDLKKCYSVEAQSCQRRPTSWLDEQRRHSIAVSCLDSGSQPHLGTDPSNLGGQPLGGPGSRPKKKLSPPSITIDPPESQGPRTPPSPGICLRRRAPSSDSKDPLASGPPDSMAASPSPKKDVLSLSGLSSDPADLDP

As to `COc1ccc(CCN2CCC[C@H]2COC(c2ccccc2)c2ccc(Cl)cc2)cc1` (stereo partly shown) [TH-1177], the IC50 in assay [1] stood at 21 µM; in assay [2], 17 µM; in assay [4] (FIG. 6B, 48 hours, read-out: IC50 for inhibition of PC3 proliferation), 14 µM; in assay [4] (PC-3, 48 hours, read-out: PROLIFERATION IC50 PC-3), 15 µM; in assay [5] it was 26 µM; in assay [6], 15 µM. Further, the IC50 in assay [7] (FIG. 6A, 48 hours, read-out: IC50 for inhibition of LNCaP proliferation) was 4 µM. The “Current in depolarized α1G-transfected cells” value in assay [3] (10 μm added at maximum current) is “about zero”. Moreover, the “Ability of calcium to cross the cell membrane” value in assay [3] (α1G-transfected Xenopus oocytes, restored on washout) was “completely inhibits”. For the same molecule, the Life span increase is reported as 34% in the assay on PC3 cells (3 mg/kg/d daily IP, p=0.047) and 38% with PC3 cells (10 mg/kg/d daily IP, p=0.0044). Besides, the “Cell growth in presence of compound” value in assay [7] (LNCaP, 1 μM or 3 μM, FIG. 7, growth resumed after removal) is “growth was stopped”. In assay [7] (LNCaP, FIG. 8), the “Effect of prior treatment on response to second exposure” value was “no effect”.

The values above are taken from US6946475B1, “Anticancer calcium channel blockers” (University of Virginia Patent Foundation, priority 1999, dated 2005).
